# In patent US8268821B2, “Methods and compositions” (priority 2003, dated 2012):
# Test system: cancer-related neuropathic pain
# Assay: Open label dose escalation study of flupirtine, case studies JE and RM
# Settings: RM; ketamine for six days prior to the flupirtine trial
structure (smiles),measurement,value
CNC1(c2ccccc2Cl)CCCCC1=O (stereo not shown) [ketamine],pain control,failed to control pain
